# Source: patent US8957093B2, “N-biphenylmethylindole modulators of PPARG” (The Scripps Research Institute, priority 2011, dated 2015)
# Read-outs that look alike come from different tables or passages of the source.
# How the values were obtained:
# [1] = biological target: Gal-4-PPAR (human PPAR LBD fused to GAL4 DNA-binding domain) (Homo sapiens (Human), UniProt P37231); assay: GAL4-PPARG LBD / UAS-luciferase transactivation assay in HEK 293T cells; format: cell-based
# GST-PPARG-LBD = GST-PPARG-LBD (Homo sapiens (Human), UniProt P37231); assay: Lanthascreen PPARG competitive binding assay (Invitrogen, TR-FRET); conditions: Lanthascreen competitive binding; NA = not active; inc = incomplete curve; read-out: IC50 (nM) Lantha
# Outline: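 TR-FRET competitive binding of GST-PPARG-LBD with 5 nM Tb-GST-antibody and 5 nM Fluormone Pan-PPAR Green tracer, in TR-FRET buffer C. Compound serially diluted from 10 μM, 2 h dark incubation, in triplicate. Readout is 520/490 nm emission ratio (340 nm excitation), expressed as fold change over 2% DMSO control.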
# [2] = GAL4 transactivation, HEK 293T cells; NA = not active; read-out: EC50 (nM) GAL4
# [3] = HEK-293T, 18 h; read-out: % transactivation at 10 μM (GAL4)
# [4] = HEK-293T, 18 h, read-out: % transactivation at 10 μM (GAL4)
# Sequence of Gal-4-PPAR (human PPAR LBD fused to GAL4 DNA-binding domain) (P37231 238-503): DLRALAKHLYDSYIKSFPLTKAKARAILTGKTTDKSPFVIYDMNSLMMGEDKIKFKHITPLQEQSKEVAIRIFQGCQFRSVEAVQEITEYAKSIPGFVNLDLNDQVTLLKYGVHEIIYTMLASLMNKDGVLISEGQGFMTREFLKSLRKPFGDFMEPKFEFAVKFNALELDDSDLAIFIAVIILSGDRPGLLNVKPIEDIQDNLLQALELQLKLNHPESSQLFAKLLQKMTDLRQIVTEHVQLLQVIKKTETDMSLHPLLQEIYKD
# Sequence of GST-PPARG-LBD (P37231 238-503): as above
Compound,"EC50 [1, 2] [nM]","activation at 10 µM [1, 3] [%]",IC50 (GST-PPARG-LBD) [nM],"activation at 10 µM [1, 4] [%]"
"Cc1c(C)n(Cc2ccc(-c3ccccc3C(=O)O)cc2)c2ccc(C(=O)N[C@@H](C)c3c(F)cncc3F)cc12 [Example 216, (S)-4′-((5-((1-(3,5-difluoropyridin-4-yl)ethyl)carbamoyl)-2,3-dimethyl-1H-indol-1-yl)methyl)-[1,1′-biphenyl]-2-carboxylic acid]",884,30,33,–
"Cc1c(C)n(Cc2ccc(-c3ccccc3C(=O)O)cc2)c2ccc(C(=O)N[C@@H](C)c3ccc(C(F)(F)F)nc3)cc12 [Example 217, (S)-4′-((2,3-dimethyl-5-((1-(6-(trifluoromethyl)pyridin-3-yl)ethyl)carbamoyl)-1H-indol-1-yl)methyl)-[1,1′-biphenyl]-2-carboxylic acid]",2800,15,230,–
"Cc1c(C)n(Cc2ccc(-c3ccccc3C(=O)O)cc2)c2ccc(C(=O)N[C@@H](C)c3ccc4c(c3)CCO4)cc12 [Example 218, (S)-4′-((5-((1-(2,3-dihydrobenzofuran-5-yl)ethyl)carbamoyl)-2,3-dimethyl-1H-indol-1-yl)methyl)-[1,1′-biphenyl]-2-carboxylic acid]",2550,45,223,–
"Cc1c(C)n(Cc2ccc(-c3ccccc3C(=O)O)cc2)c2ccc(C(=O)N[C@@H](C)c3cc(Cl)cc(Cl)c3)cc12 [Example 219, (S)-4′-((5-((1-(3,5-dichlorophenyl)ethyl)carbamoyl)-2,3-dimethyl-1H-indol-1-yl)methyl)-[1,1′-biphenyl]-2-carboxylic acid]",155,30,15,–
"Cc1c(C)n(Cc2ccc(-c3ccccc3C(=O)O)cc2)c2ccc(C(=O)N[C@@H](C)c3ccc(Cl)c(Cl)c3)cc12 [Example 220, (S)-4′-((5-((1-(3,4-dichlorophenyl)ethyl)carbamoyl)-2,3-dimethyl-1H-indol-1-yl)methyl)-[1,1′-biphenyl]-2-carboxylic acid]",142,30,10,–
"Cc1c(C)n(Cc2ccc(-c3ccccc3C(=O)O)cc2)c2ccc(C(=O)N[C@@H](C)c3cc(C(F)(F)F)ccc3F)cc12 [Example 221, (S)-4′-((5-((1-(2-fluoro-5-(trifluoromethyl)phenyl)ethyl)carbamoyl)-2,3-dimethyl-1H-indol-1-yl)methyl)-[1,1′-biphenyl]-2-carboxylic acid]",156,20,11,–
"COc1cc(C(F)(F)F)ccc1[C@H](C)NC(=O)c1ccc2c(c1)c(C)c(C)n2Cc1ccc(-c2ccccc2C(=O)O)cc1 [Example 223, (S)-4′-((5-((1-(2-methoxy-4-(trifluoromethyl)phenyl)ethyl)carbamoyl)-2,3-dimethyl-1H-indol-1-yl)methyl)-[1,1′-biphenyl]-2-carboxylic acid]",676,10,73,–
"COc1cc(C(F)(F)F)ccc1[C@@H](C)NC(=O)c1ccc2c(c1)c(C)c(C)n2Cc1ccc(-c2ccccc2C(=O)O)cc1 [Example 224, (R)-4′-((5-((1-(2-methoxy-4-(trifluoromethyl)phenyl)ethyl)carbamoyl)-2,3-dimethyl-1H-indol-1-yl)methyl)-[1,1′-biphenyl]-2-carboxylic acid]",86,20,2,–
"CCc1ccc([C@H](C)NC(=O)c2ccc3c(c2)c(C)c(C)n3Cc2ccc(-c3ccccc3C(=O)O)cc2)cc1 [Example 225, (S)-4′-((5-((1-(4-ethylphenyl)ethyl)carbamoyl)-2,3-dimethyl-1H-indol-1-yl)methyl)-[1,1′-biphenyl]-2-carboxylic acid]",1130,20,43,–
"Cc1cc(Cl)ccc1[C@H](C)NC(=O)c1ccc2c(c1)c(C)c(C)n2Cc1ccc(-c2ccccc2C(=O)O)cc1 [Example 226, (S)-4′-((5-((1-(4-chloro-2-methylphenyl)ethyl)carbamoyl)-2,3-dimethyl-1H-indol-1-yl)methyl)-[1,1′-biphenyl]-2-carboxylic acid]",172,20,11,–
"Cc1c(C)n(Cc2ccc(-c3ccccc3C(=O)O)cc2)c2ccc(C(=O)N[C@@H](C)c3ccc(F)cc3C(F)(F)F)cc12 [Example 227, (S)-4′-((5-((1-(4-fluoro-2-(trifluoromethyl)phenyl)ethyl)carbamoyl)-2,3-dimethyl-1H-indol-1-yl)methyl)-[1,1′-biphenyl]-2-carboxylic acid]",173,–,36,20
"Cc1c(C)n(Cc2ccc(-c3ccccc3C(=O)O)cc2)c2ccc(C(=O)N[C@@H](C)c3ccc(C(F)(F)F)c(F)c3)cc12 [Example 228, (S)-4′-((5-((1-(3-fluoro-4-(trifluoromethyl)phenyl)ethyl)carbamoyl)-2,3-dimethyl-1H-indol-1-yl)methyl)-[1,1′-biphenyl]-2-carboxylic acid]",1060,15,53,–
"Cc1c(C)n(Cc2ccc(-c3ccccc3C(=O)O)cc2)c2ccc(C(=O)N[C@@H](C)c3cccc(F)c3F)cc12 [Example 229, (S)-4′-((5-((1-(2,3-difluorophenyl)ethyl)carbamoyl)-2,3-dimethyl-1H-indol-1-yl)methyl)-[1,1′-biphenyl]-2-carboxylic acid]",354,30,9,–
"Cc1c(C)n(Cc2ccc(-c3ccccc3C(=O)O)cc2)c2ccc(C(=O)N[C@@H](C)c3cccc(C(F)(F)F)c3Cl)cc12 [Example 230, (S)-4′-((5-((1-(2-Chloro-3-(trifluoromethyl)phenyl)ethyl)carbamoyl)-2,3-dimethyl-1H-indol-1-yl)methyl)-[1,1′-biphenyl]-2-carboxylic acid]",709,–,103,20
"Cc1c(C)n(Cc2ccc(-c3ccccc3C(=O)O)cc2)c2ccc(C(=O)N[C@H](C)c3cccc(C(F)(F)F)c3Cl)cc12 [Example 231, (R)-4′-((5-((1-(2-chloro-3-(trifluoromethyl)phenyl)ethyl)carbamoyl)-2,3-dimethyl-1H-indol-1-yl)methyl)-[1,1′-biphenyl]-2-carboxylic acid]",131,–,2,10
"Cc1c(C)n(Cc2ccc(-c3ccccc3C(=O)O)cc2)c2ccc(C(=O)N[C@@H](C)c3cccc(Cl)c3F)cc12 [Example 232, (S)-4′-((5-((1-(3-chloro-2-fluorophenyl)ethyl)carbamoyl)-2,3-dimethyl-1H-indol-1-yl)methyl)-[1,1′-biphenyl]-2-carboxylic acid]",297,30,18,–
"Cc1c(C)n(Cc2ccc(-c3ccccc3C(=O)O)cc2)c2ccc(C(=O)N[C@@H](C)c3ccc(F)c(F)c3)cc12 [Example 233, (S)-4′-((5-((1-(3,4-difluorophenyl)ethyl)carbamoyl)-2,3-dimethyl-1H-indol-1-yl)methyl)-[1,1′-biphenyl]-2-carboxylic acid]",166,40,9,–
